Assay type in all cases: in vivo
One assay deals with Erysiphe polygoni. Put plainly: Bean Powdery Mildew control (Example A). The note with it: 240 h, seedling bean plants, inoculated 1 day after spray, 10 days, relative to untreated check plants, read-out: % Control BPM. The method, then:
The compounds of the invention were tested for the control of the Bean Powdery Mildew organism Erysiphe polygoni. Seedling bean plants were sprayed with a 250-ppm solution of the test compound in acetone, water and a nonionic emusifier. The sprayed plants were then inoculated 1 day later with the organism. The plants were maintained for 10 days at temperatures of 68° F. at night with daytime temperatures of 72° F. to 80° F.; relative humidity was maintained at 40% to 60%. The percent disease control provided by a given test compound was based on the percent disease reduction relative to the untreated check plants.

The subject of the next assay is Phytophthora infestans. Put plainly: whole plant or invertebrate. The note with it: in Solanum lycopersicum, 168 h, read-out: % Control TLB.
The test system of a further assay is Uromyces phaseoli tipica. Put plainly: Leaf Rust / Bean Rust control (Example F). The note with it: 336 h, pinto bean plants, rated after about 14 days, relative to untreated check plants, read-out: % Control BR. The method, then: The Leaf Rust test was made using pinto beans. The pathogen was Uromyces phaseoli tipica. The pinto bean plants were sprayed with a 250-ppm solution of the test compound in an acetone-water mixture containing a nonionic emulsifier. The treated plants were inoculated thereafter with the pathogen and then incubated in an environmental chamber for approximately 20 hours at 100% relative humidity and a temperature of 68° F. to 70° F. The plants were then removed from the chamber, allowed to dry, and then maintained in a greenhouse at a 60% to 80% relative humidity. The rate of infection on the leaves was made after about 14 days. The percent disease control provided by a given test compound was based on the percent disease reduction relative to untreated check plants.

The test system of another assay is Piricularia oryzae. Put plainly: whole plant or invertebrate. The note with it: Pyricularia oryzae, read-out: % Control RB.
In assay [1] the test system is Alternaria solani conidia. Put plainly: Tomato Early Blight control (Example D). The note with it: 288 h, tomato seedlings, Bonny Best, inoculated 1 day after spray, relative to untreated check plants, read-out: % Control TEB. The method, then:
Compounds of the invention were tested for the control of the Tomato Early Blight organism Alternaria solani conidia. Tomato (variety Bonny Best) seedlings of 6- to 7-weeks old were used. The tomato plants were sprayed with a 250-ppm solution of the test compound in an acetone-and-water solution containing a small amount of a nonionic emulsifier. The sprayed plants were inoculated 1 day later with the organism, placed in the environmental chamber and incubated at 66° F. to 68° F. and 100% relative humidity for 24 hours. Following the incubation, the plants were maintained in a greenhouse for about 12 days. Percent disease control was based on the percent disease development on untreated check plants.

The test system of the next assay is Plasmopara viticola. Put plainly: Grape Downy Mildew control (Example E). The note with it: detached grape leaves, cultivar Emperor, relative to untreated check plants, read-out: % Control GDM. The method, then:
The compounds of the invention were tested for the control of the Grape Downy Mildew organism Plasmopara viticola. Detached leaves, between 70 mm and 85 mm in diameter, 7-week-old Vitis vinifera cultivar Emperor grape seedlings were used as hosts. The leaves were sprayed with a 250-ppm solution of the test compound in acetone. The sprayed leaves were dried, inoculated with a spore suspension of the organism, placed in a humid environmental chamber and incubated at 66° F. to 68° F. and about 100% relative humidity. After incubation for 2 days, the plants were then held in a greenhouse 7 to 9 days; then the amount of disease control was determined. The percent disease control provided by a given test compound was based on the percent disease reduction relative to untreated check plants.

A further assay deals with Septoria apii. Put plainly: whole plant or invertebrate. The note with it: 336 h, read-out: % Control CLB.

This passage reports pest or weed control results from patent publication US4782074A (priority 1987, dated 1988).

`CCCN(CC(C)Cc1ccc(C(C)(C)C)cc1)C(=O)c1cnccn1` (stereo not shown) [Compound 24]: the pest or weed control at 250 ppm in the assay with Erysiphe polygoni was 72%; in the assay on Phytophthora infestans it was 4%; in the assay with Uromyces phaseoli tipica, 0%; in assay [1], 8%; in the assay with Plasmopara viticola, 7%; in the assay on Septoria apii it was 17%. The pest or weed control at 625 ppm with Piricularia oryzae is 0%.
As to `CCCN(CCSc1c(Cl)cccc1Cl)C(=O)c1cccnc1` [Compound 11, N-(n-propyl), N-(3-pyridylcarbonyl) 2-aminoethanethiol 2,6-dichlorophenylthioether], the pest or weed control at 250 ppm is 58% in the assay with Erysiphe polygoni; 0% in the assay on Phytophthora infestans; 0% in the assay with Uromyces phaseoli tipica; 60% in assay [1]; 13% in the assay with Plasmopara viticola; 0% in the assay on Septoria apii. Besides, the pest or weed control at 625 ppm in the assay on Piricularia oryzae worked out at 29%.
Consider `CCCN(CCOc1c(Cl)cccc1Cl)C(=O)c1cncnc1` [Compound 13], for which the pest or weed control at 250 ppm in the assay with Erysiphe polygoni was found to be 81%; in the assay on Phytophthora infestans it was 4%; in the assay on Uromyces phaseoli tipica it was 0%; in assay [1], 97%; in the assay with Plasmopara viticola, 10%; in the assay with Septoria apii it was 80%.
Regarding `CCCN(CCOc1ccc(C(C)(C)C)cc1)C(=O)c1cnccn1` [Compound 5], the pest or weed control at 250 ppm worked out at 94% in the assay with Erysiphe polygoni; 0% in the assay with Phytophthora infestans; 0% in the assay on Uromyces phaseoli tipica; 36% in assay [1]; 28% with Plasmopara viticola; 17% with Septoria apii.
On to `CCCN(C(=O)c1cccnc1)C(C)COc1c(Cl)cc(Cl)cc1Cl` (stereo not shown) [Compound 20, N-(n-propyl), N-(3-pyridylcarbonyl)propanol-2-amine 2,4,6-trichlorophenylether], for which the pest or weed control at 250 ppm in the assay on Erysiphe polygoni was determined as 93%; in the assay on Phytophthora infestans, 0%; in the assay on Uromyces phaseoli tipica, 23%; in the assay on Plasmopara viticola, 7%; with Septoria apii, 0%. In addition, the pest or weed control at 625 ppm with Piricularia oryzae turned out to be 0%.
In the case of `CCCN(CCOc1ccc(C(C)(C)C)cc1)C(=O)c1cccnc1` [Compound 6], the pest or weed control at 250 ppm in the assay with Erysiphe polygoni stood at 98%; in the assay with Phytophthora infestans, 10%; in the assay with Uromyces phaseoli tipica, 0%; in assay [1], 50%; in the assay on Plasmopara viticola, 0%; in the assay on Septoria apii, 0%.
As to `CCCN(Cc1c(Cl)cccc1Cl)C(=O)c1cccnc1` [Compound 29], the pest or weed control at 250 ppm was 48% in the assay on Erysiphe polygoni; 0% in the assay with Phytophthora infestans; 0% with Uromyces phaseoli tipica; 50% in assay [1]; 27% with Plasmopara viticola; 0% in the assay with Septoria apii.
For the compound `CCCN(CCOc1c(Cl)cc(Cl)cc1Cl)C(=S)c1cnccn1` [Compound 18], the pest or weed control at 250 ppm in the assay on Erysiphe polygoni turned out to be 54%; in the assay with Phytophthora infestans it was 0%; with Uromyces phaseoli tipica, 0%; with Plasmopara viticola, 43%; in the assay on Septoria apii, 85%.
Regarding `CCCN(C(=O)c1cnccn1)C(C)COc1c(Cl)cc(Cl)cc1Cl` (stereo not shown) [Compound 21, N-(n-propyl), N-(2-pyrazinylcarbonyl)propanol-2-amine 2,4,6-trichlorophenylether], the pest or weed control at 250 ppm with Erysiphe polygoni is 71%; in the assay on Phytophthora infestans it was 0%; in the assay on Uromyces phaseoli tipica, 23%; with Plasmopara viticola, 67%; with Septoria apii, 0%. The pest or weed control at 625 ppm in the assay with Piricularia oryzae turned out to be 0%.
